Measured values from ChEMBL document CHEMBL4052645, “Discovery of potent and efficacious pyrrolopyridazines as dual JAK1/3 inhibitors” (Bioorg Med Chem Lett, 2017).

Legend:
[1] = biological target: Ribosomal protein S6 kinase alpha-6 (Homo sapiens) (UniProt Q9UK32); experiment: Inhibition of human N-terminal RSK4 kinase domain 1 (M1 to E397 residues) expressed in mammalian expression system assessed as residual activity at 50 nM by KINOMEscan assay relative to control
[2] = biological target: STE20-like serine/threonine-protein kinase (Homo sapiens) (UniProt Q9H2G2); experiment: Inhibition of wild-type human partial length SLK (S14 to A307 residues) expressed in bacterial expression system assessed as residual activity at 50 nM by Kinomescan method relative to control
[3] = biological target: Epidermal growth factor receptor (Homo sapiens) (UniProt P00533); experiment: Inhibition of wild-type human partial length EGFR (R669 to V1011 residues) expressed in bacterial expression system assessed as residual activity at 50 nM by Kinomescan method relative to control
Chain of Epidermal growth factor receptor (Homo sapiens) (P00533 whole entry, the tested form may be a part): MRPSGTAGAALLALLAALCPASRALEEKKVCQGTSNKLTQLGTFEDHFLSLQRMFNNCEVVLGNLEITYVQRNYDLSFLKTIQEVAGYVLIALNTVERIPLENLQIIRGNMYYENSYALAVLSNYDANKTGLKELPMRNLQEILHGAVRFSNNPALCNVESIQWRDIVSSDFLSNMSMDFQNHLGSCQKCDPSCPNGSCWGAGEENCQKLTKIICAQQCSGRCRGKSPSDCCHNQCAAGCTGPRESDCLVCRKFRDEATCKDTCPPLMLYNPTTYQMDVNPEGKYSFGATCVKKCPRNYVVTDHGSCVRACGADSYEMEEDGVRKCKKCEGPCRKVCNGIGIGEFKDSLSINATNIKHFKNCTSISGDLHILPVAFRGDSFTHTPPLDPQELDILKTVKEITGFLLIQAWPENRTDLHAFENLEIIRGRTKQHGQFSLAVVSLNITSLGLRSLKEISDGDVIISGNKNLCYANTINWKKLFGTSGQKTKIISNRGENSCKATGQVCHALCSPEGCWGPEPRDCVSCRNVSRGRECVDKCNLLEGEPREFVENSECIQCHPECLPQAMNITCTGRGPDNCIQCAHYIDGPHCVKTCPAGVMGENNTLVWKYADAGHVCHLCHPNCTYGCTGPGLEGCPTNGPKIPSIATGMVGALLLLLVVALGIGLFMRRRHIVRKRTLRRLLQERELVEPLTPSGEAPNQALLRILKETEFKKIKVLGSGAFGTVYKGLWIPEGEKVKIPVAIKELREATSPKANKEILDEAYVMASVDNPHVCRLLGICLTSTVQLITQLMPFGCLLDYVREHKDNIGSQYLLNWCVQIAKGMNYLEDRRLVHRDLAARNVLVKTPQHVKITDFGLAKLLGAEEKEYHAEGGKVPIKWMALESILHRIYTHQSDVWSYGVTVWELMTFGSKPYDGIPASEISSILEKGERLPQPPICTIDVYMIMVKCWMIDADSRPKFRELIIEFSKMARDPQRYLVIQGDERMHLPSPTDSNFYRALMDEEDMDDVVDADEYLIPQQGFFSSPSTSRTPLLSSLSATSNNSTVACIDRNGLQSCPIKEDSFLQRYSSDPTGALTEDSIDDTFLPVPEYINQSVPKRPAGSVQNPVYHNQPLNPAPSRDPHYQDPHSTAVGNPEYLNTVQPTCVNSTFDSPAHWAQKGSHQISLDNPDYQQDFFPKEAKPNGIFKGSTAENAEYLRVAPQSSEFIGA

[4] = biological target: Serine/threonine-protein kinase SIK2 (Homo sapiens) (UniProt Q9H0K1); experiment: Inhibition of wild-type human full length QIK (M1 to N926 residues) expressed in bacterial expression system assessed as residual activity at 50 nM by Kinomescan method relative to control
[5] = biological target: Aurora kinase C (Homo sapiens) (UniProt Q9UQB9); experiment: Inhibition of wild-type human full length AURC (M1 to S275 residues) expressed in bacterial expression system assessed as residual activity at 50 nM by Kinomescan method relative to control
[6] = biological target: Mitogen-activated protein kinase kinase kinase 7 (Homo sapiens) (UniProt O43318); experiment: Inhibition of wild-type human partial length TAK1 (M1 to Q303 residues) expressed in mammalian expression system assessed as residual activity at 50 nM by Kinomescan method relative to control
[7] = biological target: Mitogen-activated protein kinase kinase kinase 6 (Homo sapiens) (UniProt O95382); experiment: Inhibition of wild-type human partial length MAP3K6 (M278 to R972 residues) expressed in mammalian expression system assessed as residual activity at 50 nM by Kinomescan method relative to control
[8] = biological target: SRSF protein kinase 3 (Homo sapiens) (UniProt Q9UPE1); experiment: Inhibition of wild-type human partial length MSSK1 (P41 to P567 residues) expressed in bacterial expression system assessed as residual activity at 50 nM by Kinomescan method relative to control
[9] = biological target: Macrophage colony-stimulating factor 1 receptor (Homo sapiens) (UniProt P07333); experiment: Inhibition of wild-type human partial length FMS (I564 to S939 residues) expressed in bacterial expression system assessed as residual activity at 50 nM by Kinomescan method relative to control
Chain of Macrophage colony-stimulating factor 1 receptor (Homo sapiens) (P07333 whole entry, the tested form may be a part): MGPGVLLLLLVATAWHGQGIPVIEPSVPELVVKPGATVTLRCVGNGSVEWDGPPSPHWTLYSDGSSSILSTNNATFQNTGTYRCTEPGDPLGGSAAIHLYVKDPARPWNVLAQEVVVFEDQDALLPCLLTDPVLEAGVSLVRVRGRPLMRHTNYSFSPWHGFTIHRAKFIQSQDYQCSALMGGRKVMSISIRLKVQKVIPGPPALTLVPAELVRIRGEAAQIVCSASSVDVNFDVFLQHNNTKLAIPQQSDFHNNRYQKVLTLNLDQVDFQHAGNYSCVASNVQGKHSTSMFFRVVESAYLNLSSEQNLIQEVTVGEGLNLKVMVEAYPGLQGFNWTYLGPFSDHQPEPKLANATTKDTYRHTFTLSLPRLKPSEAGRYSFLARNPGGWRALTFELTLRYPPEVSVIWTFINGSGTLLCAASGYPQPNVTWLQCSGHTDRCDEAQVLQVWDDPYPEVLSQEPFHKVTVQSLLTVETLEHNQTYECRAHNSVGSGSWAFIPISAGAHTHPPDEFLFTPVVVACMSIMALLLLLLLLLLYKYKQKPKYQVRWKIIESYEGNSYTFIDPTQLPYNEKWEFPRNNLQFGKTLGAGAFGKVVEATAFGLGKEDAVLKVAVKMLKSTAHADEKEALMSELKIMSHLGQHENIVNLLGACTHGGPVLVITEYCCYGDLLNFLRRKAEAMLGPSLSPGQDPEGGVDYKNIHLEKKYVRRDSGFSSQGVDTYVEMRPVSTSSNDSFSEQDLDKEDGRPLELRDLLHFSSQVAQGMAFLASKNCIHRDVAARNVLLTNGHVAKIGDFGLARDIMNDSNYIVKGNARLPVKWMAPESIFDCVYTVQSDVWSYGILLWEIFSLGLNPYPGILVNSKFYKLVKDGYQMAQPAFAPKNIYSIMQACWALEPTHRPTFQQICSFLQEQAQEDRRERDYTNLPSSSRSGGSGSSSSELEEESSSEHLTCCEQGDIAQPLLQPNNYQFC

[10] = biological target: Serine/threonine-protein kinase MARK2 (Homo sapiens) (UniProt Q7KZI7); experiment: Inhibition of wild-type human partial length MARK2 (M1 to R450 residues) expressed in bacterial expression system assessed as residual activity at 50 nM by Kinomescan method relative to control
Chain of Serine/threonine-protein kinase MARK2 (Homo sapiens) (Q7KZI7 whole entry, the tested form may be a part): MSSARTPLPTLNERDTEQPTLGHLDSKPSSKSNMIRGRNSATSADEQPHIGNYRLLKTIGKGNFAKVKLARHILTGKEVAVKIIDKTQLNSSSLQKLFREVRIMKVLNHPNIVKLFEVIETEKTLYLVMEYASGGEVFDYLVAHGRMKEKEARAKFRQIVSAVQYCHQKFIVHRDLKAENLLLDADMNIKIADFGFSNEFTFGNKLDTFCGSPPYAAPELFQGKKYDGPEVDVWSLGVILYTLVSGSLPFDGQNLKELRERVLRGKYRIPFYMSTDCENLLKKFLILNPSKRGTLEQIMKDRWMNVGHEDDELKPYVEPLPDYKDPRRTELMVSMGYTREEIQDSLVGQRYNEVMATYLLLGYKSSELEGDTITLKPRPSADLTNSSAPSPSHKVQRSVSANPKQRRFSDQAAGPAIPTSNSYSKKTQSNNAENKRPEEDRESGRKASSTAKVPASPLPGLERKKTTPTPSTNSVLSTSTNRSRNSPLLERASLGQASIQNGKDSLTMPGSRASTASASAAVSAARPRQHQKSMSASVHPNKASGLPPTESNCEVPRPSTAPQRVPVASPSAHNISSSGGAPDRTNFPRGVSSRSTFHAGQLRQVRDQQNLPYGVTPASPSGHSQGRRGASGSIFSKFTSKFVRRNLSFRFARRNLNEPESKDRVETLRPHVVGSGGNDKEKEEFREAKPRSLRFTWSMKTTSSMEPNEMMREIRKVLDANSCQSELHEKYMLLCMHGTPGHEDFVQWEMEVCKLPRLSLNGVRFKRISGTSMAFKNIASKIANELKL

[11] = biological target: Serine/threonine-protein kinase BRSK1 (Homo sapiens) (UniProt Q8TDC3); experiment: Inhibition of wild-type human partial length BRSK1 (M1 to E754 residues) expressed in bacterial expression system assessed as residual activity at 50 nM by Kinomescan method relative to control
[12] = biological target: Mitogen-activated protein kinase 1 (Homo sapiens) (UniProt P28482); experiment: Inhibition of wild-type human full length ERK2 (M1 to S360 residues) expressed in bacterial expression system assessed as residual activity at 50 nM by Kinomescan method relative to control
[13] = biological target: Tyrosine-protein kinase SYK (Homo sapiens) (UniProt P43405); experiment: Inhibition of wild-type human partial length SYK (D354 to N635 residues) expressed in bacterial expression system assessed as residual activity at 50 nM by Kinomescan method relative to control
[14] = biological target: Cyclin-dependent kinase 14 (Homo sapiens) (UniProt O94921); experiment: Inhibition of wild-type human full length PFTAIRE1 (M1 to H451 residues) expressed in bacterial expression system assessed as residual activity at 50 nM by Kinomescan method relative to control
[15] = biological target: Calcium/calmodulin-dependent protein kinase type II subunit alpha (Homo sapiens) (UniProt Q9UQM7); experiment: Inhibition of wild-type human partial length CAMK2A (M1 to K328 residues) expressed in bacterial expression system assessed as residual activity at 50 nM by Kinomescan method relative to control
[16] = biological target: Myosin light chain kinase 2, skeletal/cardiac muscle (Homo sapiens) (UniProt Q9H1R3); experiment: Inhibition of wild-type human partial length SKMLCK (D258 to K570 residues) expressed in bacterial expression system assessed as residual activity at 50 nM by Kinomescan method relative to control
[17] = biological target: Mitogen-activated protein kinase kinase kinase kinase 4 (Homo sapiens) (UniProt O95819); experiment: Inhibition of wild-type human partial length HGK (M1 to R310 residues) expressed in bacterial expression system assessed as residual activity at 50 nM by Kinomescan method relative to control
[18] = biological target: Receptor-interacting serine/threonine-protein kinase 1 (Homo sapiens) (UniProt Q13546); experiment: Inhibition of wild-type human partial length RIPK1 (M1 to K305 residues) expressed in bacterial expression system assessed as residual activity at 50 nM by Kinomescan method relative to control
Chain of Receptor-interacting serine/threonine-protein kinase 1 (Homo sapiens) (Q13546 whole entry, the tested form may be a part): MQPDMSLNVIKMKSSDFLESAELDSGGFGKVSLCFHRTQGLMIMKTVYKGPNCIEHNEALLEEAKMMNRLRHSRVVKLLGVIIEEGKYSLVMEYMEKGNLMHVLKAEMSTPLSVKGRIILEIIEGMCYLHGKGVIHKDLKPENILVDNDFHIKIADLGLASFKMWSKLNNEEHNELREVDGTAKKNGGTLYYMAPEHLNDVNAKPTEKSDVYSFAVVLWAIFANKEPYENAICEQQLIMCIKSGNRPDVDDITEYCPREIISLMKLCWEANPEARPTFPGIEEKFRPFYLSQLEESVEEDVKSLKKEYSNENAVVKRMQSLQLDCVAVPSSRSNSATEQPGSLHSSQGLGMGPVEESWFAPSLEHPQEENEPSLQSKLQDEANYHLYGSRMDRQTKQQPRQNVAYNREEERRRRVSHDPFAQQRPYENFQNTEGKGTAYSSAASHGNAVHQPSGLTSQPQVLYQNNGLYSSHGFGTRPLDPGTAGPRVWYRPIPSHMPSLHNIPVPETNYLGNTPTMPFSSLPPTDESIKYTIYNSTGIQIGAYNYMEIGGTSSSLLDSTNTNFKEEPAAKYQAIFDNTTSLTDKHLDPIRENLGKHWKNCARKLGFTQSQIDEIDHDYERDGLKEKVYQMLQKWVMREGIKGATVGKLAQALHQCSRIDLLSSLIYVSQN

[19] = biological target: Cyclin-dependent kinase 9 (Homo sapiens) (UniProt P50750); experiment: Inhibition of wild-type human full length CDK9 (M1 to F372 residues) expressed in bacterial expression system assessed as residual activity at 50 nM by Kinomescan method relative to control
Chain of Cyclin-dependent kinase 9 (Homo sapiens) (P50750 whole entry, the tested form may be a part): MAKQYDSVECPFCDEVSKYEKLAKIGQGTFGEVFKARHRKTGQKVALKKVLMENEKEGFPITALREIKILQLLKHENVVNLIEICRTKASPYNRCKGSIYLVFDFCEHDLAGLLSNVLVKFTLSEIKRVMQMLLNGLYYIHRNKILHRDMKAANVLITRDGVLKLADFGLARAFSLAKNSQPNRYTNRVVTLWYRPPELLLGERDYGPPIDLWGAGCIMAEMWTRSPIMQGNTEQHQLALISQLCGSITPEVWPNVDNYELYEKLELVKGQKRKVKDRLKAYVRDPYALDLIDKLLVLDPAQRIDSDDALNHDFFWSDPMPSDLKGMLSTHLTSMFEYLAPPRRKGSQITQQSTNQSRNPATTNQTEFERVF

[20] = biological target: Serine/threonine-protein kinase tousled-like 2 (Homo sapiens) (UniProt Q86UE8); experiment: Inhibition of wild-type human partial length TLK2 (E424 to N749 residues) expressed in bacterial expression system assessed as residual activity at 50 nM by Kinomescan method relative to control
[21] = biological target: Mitogen-activated protein kinase kinase kinase 20 (Homo sapiens) (UniProt Q9NYL2); experiment: Inhibition of wild-type human partial length ZAK (M1 to L331 residues) expressed in bacterial expression system assessed as residual activity at 50 nM by Kinomescan method relative to control
[22] = biological target: Cyclin-dependent kinase-like 1 (Homo sapiens) (UniProt Q00532); experiment: Inhibition of wild-type human full length CDKL1 (M1 to I358 residues) expressed in mammalian expression system assessed as residual activity at 50 nM by Kinomescan method relative to control
Chain of Cyclin-dependent kinase-like 1 (Homo sapiens) (Q00532 whole entry, the tested form may be a part, canonical isoform): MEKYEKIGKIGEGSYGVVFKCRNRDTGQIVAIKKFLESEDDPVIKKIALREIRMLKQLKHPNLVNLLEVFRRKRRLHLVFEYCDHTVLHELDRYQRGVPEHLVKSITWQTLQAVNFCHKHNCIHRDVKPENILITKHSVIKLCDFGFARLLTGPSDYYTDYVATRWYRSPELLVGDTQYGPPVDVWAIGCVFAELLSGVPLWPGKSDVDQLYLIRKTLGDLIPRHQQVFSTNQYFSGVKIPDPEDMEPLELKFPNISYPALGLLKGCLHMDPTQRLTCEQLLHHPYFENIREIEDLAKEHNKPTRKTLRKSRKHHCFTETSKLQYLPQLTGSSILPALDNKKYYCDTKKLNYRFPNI

[23] = biological target: Casein kinase I isoform gamma-2 (Homo sapiens) (UniProt P78368); experiment: Inhibition of wild-type human full length CK1G2 (M1 to K415 residues) expressed in bacterial expression system assessed as residual activity at 50 nM by Kinomescan method relative to control
Chain of Casein kinase I isoform gamma-2 (Homo sapiens) (P78368 whole entry, looked up, the tested form may be a part, canonical isoform): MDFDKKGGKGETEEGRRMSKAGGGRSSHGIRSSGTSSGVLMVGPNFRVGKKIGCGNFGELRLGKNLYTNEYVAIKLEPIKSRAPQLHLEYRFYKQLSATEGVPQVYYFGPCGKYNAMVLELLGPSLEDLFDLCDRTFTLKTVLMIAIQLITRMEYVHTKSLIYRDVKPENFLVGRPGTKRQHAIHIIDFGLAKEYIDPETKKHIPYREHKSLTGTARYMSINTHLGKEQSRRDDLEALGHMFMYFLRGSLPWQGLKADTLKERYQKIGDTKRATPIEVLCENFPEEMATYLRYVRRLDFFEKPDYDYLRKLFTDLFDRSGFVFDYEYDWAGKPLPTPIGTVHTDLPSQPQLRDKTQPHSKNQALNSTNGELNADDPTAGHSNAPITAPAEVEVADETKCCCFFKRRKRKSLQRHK

[24] = biological target: Dual specificity mitogen-activated protein kinase kinase 7 (Homo sapiens) (UniProt O14733); experiment: Inhibition of wild-type human full length MAP2K7 (M1 to R419 residues) expressed in mammalian expression system assessed as residual activity at 50 nM by Kinomescan method relative to control
[25] = biological target: Mitogen-activated protein kinase 12 (Homo sapiens) (UniProt P53778); experiment: Inhibition of wild-type human full length p38-gamma (M1 to L367 residues) expressed in mammalian expression system assessed as residual activity at 50 nM by Kinomescan method relative to control

| Compound | Activity [1] [%] | Activity [2] [%] | Activity [3] [%] | Activity [4] [%] | Activity [5] [%] | Activity [6] [%] | Activity [7] [%] | Activity [8] [%] | Activity [9] [%] | Activity [10] [%] | Activity [11] [%] | Activity [12] [%] | Activity [13] [%] | Activity [14] [%] | Activity [15] [%] | Activity [16] [%] | Activity [17] [%] | Activity [18] [%] | Activity [19] [%] | Activity [20] [%] | other results |
| --- | --- | --- | --- | --- | --- | --- | --- | --- | --- | --- | --- | --- | --- | --- | --- | --- | --- | --- | --- | --- | --- |
| CC1(C)[C@H](Nc2c(C(N)=O)cnn3cc(-c4ccccc4)cc23)CC[C@]1(C)N | 14 | 18 | 30 | 36 | 42 | 48 | 56 | 56 | 57 | 64 | 75 | 82 | 82 | 83 | 88 | 90 | 90 | 92 | 93 | 96 | Activity [21]: 96%; Activity [22]: 97%; Activity [23]: 100%; Activity [24]: 100%; Activity [25]: 100% |
| COc1ccc(-c2cc3c(N[C@@H]4CC[C@](C)(N)C4(C)C)c(C(N)=O)cnn3c2)cn1 | 46 | 94 | 100 | 63 | 82 | 73 | 93 | 100 | 74 | 98 | 100 | 100 | 91 | 100 | 100 | 100 | 100 | 100 | 100 | 98 | Activity [21]: 91%; Activity [22]: 100%; Activity [23]: 82%; Activity [24]: 55%; Activity [25]: 100% |
